Patent US10183938B2, “Geminal substituted quinuclidine amide compounds as agonists of α-7 nicotonic acetylcholine receptors” (AXOVANT SCIENCES GMBH, priority 2014, dated 2019)
Structures can show the parent of a compound that is named as a salt.

The compounds below were run against human α7 nAChRs transiently expressed in Xenopus laevis oocytes (Homo sapiens (Human), UniProt P36544) (assay: Oocyte electrophysiology screen (TEVC)). Settings: 0.01 mM test compound, peak current relative to 0.2 mM ACh.
Format: cell-based
Procedure: Oocyte Electrophysiology Screen (% ACh @ 10 μM Oocyte)
The Oocyte Electrophysiology Screen studies were performed under contract by HiQScreen Geneva, Switzerland. All experiments were carried out at human α7 nAChRs transiently expressed in Xenopus laevis oocytes using the method of cDNA expression. Currents evoked by acetylcholine or other agonist ligands were recorded using the standard two-electrode voltage-clamp configuration (TEVC). X. laevis oocytes were prepared and injected using standard procedures. Briefly, ovaries were harvested from X. laevis females that were deeply anesthetized and pithed following the animal rights rule from the Geneva canton. A small piece of ovary was isolated for immediate preparation while the remaining part was placed at 4° C. in a sterile Barth solution containing in mM: NaCl 88, KCl 1, NaHCO3 2.4, HEPES 10, MgSO4.7H2O 0.82, Ca(NO3)2.4H2O 0.33, CaCl2.6H2O 0.41, at pH 7.4, and supplemented with 20 μg/mL of kanamycin, 100 unit/mL penicillin and 100 μg/mL streptomycin. […] Cells were held at −80 mV. Data were filtered at 10 Hz, captured at 100 Hz and analyzed using proprietary data acquisition and analysis software running under Matlab (Mathworks Inc.).
Experimental Protocol and Analysis
After establishing a baseline transmembrane current, acetylcholine (ACh) was applied for 5 seconds at a concentration of 0.2 mM to establish a control ACh-evoked current response. Following a wash period of 90 s in OR2 medium (free of ACh), cells were then exposed for 30 s to the test compound applied at 0.01 mM. The same reference ACh test pulse was immediately given at the end of the compound exposure and again after 90 s of recovery in OR2 Medium (free of ACh or test compound). All data were determined in triplicate. The response evoked by the test compound was expressed as a percentage of that evoked by ACh: Response (% ACh)=100×(Itest/IACh) where Itest is the peak inward current measured during exposure to 0.01 mM of test compound and IACh is the peak inward current measured in the presence of ACh.

human α7 nAChRs transiently expressed in Xenopus laevis oocytes, sequence (P36544 23-502 limits assumed): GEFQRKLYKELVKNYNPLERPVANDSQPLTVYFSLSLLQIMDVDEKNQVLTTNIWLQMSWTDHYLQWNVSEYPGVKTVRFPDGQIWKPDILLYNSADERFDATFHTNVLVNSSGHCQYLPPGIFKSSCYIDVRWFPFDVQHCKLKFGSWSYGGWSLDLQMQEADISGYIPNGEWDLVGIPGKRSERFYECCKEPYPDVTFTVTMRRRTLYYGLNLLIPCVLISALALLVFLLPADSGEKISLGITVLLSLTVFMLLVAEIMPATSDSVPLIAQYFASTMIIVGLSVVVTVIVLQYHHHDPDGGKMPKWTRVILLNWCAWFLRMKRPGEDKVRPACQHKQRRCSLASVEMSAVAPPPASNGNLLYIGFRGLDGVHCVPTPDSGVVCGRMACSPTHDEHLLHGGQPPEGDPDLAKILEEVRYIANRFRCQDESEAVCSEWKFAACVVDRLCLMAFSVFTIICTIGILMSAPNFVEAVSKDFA

| Compound | % ACh @ 10 μM Oocyte |
| --- | --- |
| O=C(NC1C2CCN(CC2)C12CC2)c1cc2cc(Cl)c(Cl)cc2s1 (single isomer, unassigned; enantiomer2) [67b, 5,6-dichloro-N-(1′-azaspiro[cyclopropane-1,2′-bicyclo[2.2.2]octan]-3′-yl)benzo[b]thiophene-2-carboxamide-enantiomer2 hydrochloride] | 1 % ACh |
| CC1(C)[C@H](NC(=O)c2cc3ccccc3s2)C2CCN1CC2 [(R)-1, (R)—N-(2,2-dimethylquinuclidin-3-yl)benzo[b]thiophene-2-carboxamide hydrochloride] | 401 % ACh |
| COc1ccc2sc(C(=O)N[C@@H]3C4CCN(CC4)C3(C)C)cc2c1 [(R)-21, (R)—N-(2,2-dimethylquinuclidin-3-yl)-5-methoxybenzo[b]thiophene-2-carboxamide hydrochloride] | 73 % ACh |
| Cc1csc2cc(C(=O)N[C@@H]3C4CCN(CC4)C3(C)C)ccc12 [(R)-25, (R)—N-(2,2-dimethylquinuclidin-3-yl)-3-methylbenzo[b]thiophene-6-carboxamide hydrochloride] | 7 % ACh |

Same assay, conditions: 0.01 mM test compound, peak current relative to 0.2 mM ACh; hydrochloride

| Compound | % ACh @ 10 μM Oocyte |
| --- | --- |
| O=C(NC1C2CCN(CC2)C12CC2)c1cc2ccc(Cl)cc2s1 (single isomer, unassigned; enantiomer2) [65b, 6-chloro-N-(1′-azaspiro[cyclopropane-1,2′-bicyclo[2.2.2]octan]-3′-yl)benzo[b]thiophene-2-carboxamide-enantiomer2 hydrochloride] | 1 % ACh |
| Cc1ccc2cc(C(=O)NC3C4CCN(CC4)C34CC4)sc2c1 (single isomer, unassigned; enantiomer2) [68b, 6-methyl-N-(1′-azaspiro[cyclopropane-1,2′-bicyclo[2.2.2]octan]-3′-yl)benzo[b]thiophene-2-carboxamide-enantiomer2 hydrochloride] | 5 % ACh |
| Cc1ccc2sc(C(=O)NC3C4CCN(CC4)C34CC4)cc2c1 (single isomer, unassigned; enantiomer2) [69b, 5-methyl-N-(1′-azaspiro[cyclopropane-1,2′-bicyclo[2.2.2]octan]-3′-yl)benzo[b]thiophene-2-carboxamide-enantiomer2 hydrochloride] | 1 % ACh |
| O=C(NC1C2CCN(CC2)C12CC2)c1cc2cc(C(F)(F)F)ccc2s1 (single isomer, unassigned; enantiomer2) [70b, N-(1′-azaspiro[cyclopropane-1,2′-bicyclo[2.2.2]octan]-3′-yl)-5-(trifluoromethyl)benzo[b]thiophene-2-carboxamide-enantiomer2 hydrochloride] | 1 % ACh |
| O=C(NC1C2CCN(CC2)C12CC2)c1cc2ccc(C3CC3)cc2s1 (single isomer, unassigned; enantiomer2) [71b, 6-cyclopropyl-N-(1′-azaspiro[cyclopropane-1,2′-bicyclo[2.2.2]octan]-3′-yl)benzo[b]thiophene-2-carboxamide-enantiomer2 hydrochloride] | 2 % ACh |
| O=C(NC1C2CCN(CC2)C12CC2)c1cc2cc(C3CC3)ccc2s1 (single isomer, unassigned; enantiomer2) [72b, 5-cyclopropyl-N-(1′-azaspiro[cyclopropane-1,2′-bicyclo[2.2.2]octan]-3′-yl)benzo[b]thiophene-2-carboxamide-enantiomer2 hydrochloride] | 1 % ACh |
| COc1ccc2cc(C(=O)NC3C4CCN(CC4)C34CC4)sc2c1 (single isomer, unassigned; enantiomer2) [73b, 6-methoxy-N-(1′-azaspiro[cyclopropane-1,2′-bicyclo[2.2.2]octan]-3′-yl)benzo[b]thiophene-2-carboxamide-enantiomer2 hydrochloride] | 1 % ACh |
| COc1ccc2sc(C(=O)NC3C4CCN(CC4)C34CC4)cc2c1 (single isomer, unassigned; enantiomer2) [74b, 5-methoxy-N-(1′-azaspiro[cyclopropane-1,2′-bicyclo[2.2.2]octan]-3′-yl)benzo[b]thiophene-2-carboxamide-enantiomer2 hydrochloride] | 4 % ACh |
